Measured values taken from ChEMBL document CHEMBL1201862, “PubChem BioAssay data set” (2004).
Blank lines part the entries; values can stand above or below the compound they belong to. Active and inactive are the calls of the source.

Columns and labels:
[1] = target: T1, RNA-binding protein pos-1 (Caenorhabditis elegans, UniProt G5EF15); experiment: disruptors of C. elegans POS-1 RNA interaction – biochemical, fluorescence polarization, dose response (AID 1964);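 note: purified POS-1 fused to maltose binding protein made in E. coli; potency of compounds blocking POS-1 binding to fluorescent RNA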
T1 sequence (G5EF15 whole entry): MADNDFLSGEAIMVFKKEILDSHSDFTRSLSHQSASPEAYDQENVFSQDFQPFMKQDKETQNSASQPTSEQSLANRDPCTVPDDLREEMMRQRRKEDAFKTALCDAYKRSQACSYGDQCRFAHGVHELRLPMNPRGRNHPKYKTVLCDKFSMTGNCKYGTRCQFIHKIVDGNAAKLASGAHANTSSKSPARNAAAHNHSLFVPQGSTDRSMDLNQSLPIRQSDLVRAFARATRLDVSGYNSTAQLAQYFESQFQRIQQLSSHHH

[2] = target: T2, Zinc finger protein mex-5 (Caenorhabditis elegans, UniProt Q9XUB2); experiment: potency of MEX-5 RNA-binding blockers – biochemical, C. elegans, fluorescence polarization, dose response (AID 1960)
T2 sequence (Q9XUB2 whole entry): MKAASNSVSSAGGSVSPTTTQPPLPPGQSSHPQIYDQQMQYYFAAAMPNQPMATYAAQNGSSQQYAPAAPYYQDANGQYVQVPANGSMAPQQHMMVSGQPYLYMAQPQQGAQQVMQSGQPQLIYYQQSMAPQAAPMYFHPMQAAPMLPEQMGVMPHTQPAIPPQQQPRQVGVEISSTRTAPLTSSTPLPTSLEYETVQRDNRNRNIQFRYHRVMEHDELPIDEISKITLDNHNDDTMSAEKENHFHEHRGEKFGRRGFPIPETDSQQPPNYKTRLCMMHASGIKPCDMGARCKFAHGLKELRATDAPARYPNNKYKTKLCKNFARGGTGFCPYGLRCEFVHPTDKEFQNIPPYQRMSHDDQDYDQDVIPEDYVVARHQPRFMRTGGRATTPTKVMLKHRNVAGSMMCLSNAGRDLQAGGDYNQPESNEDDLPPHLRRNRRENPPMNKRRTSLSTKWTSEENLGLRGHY

[3] = target: T3, Sentrin-specific protease 1 (Homo sapiens, UniProt Q9P0U3); experiment: SENP1 catalytic domain blockers, concentration series – biochemical, kinetic FRET, dose response (AID 651697); type: functional; details: read-out: IC50_Mean
[4] = target: T3, Sentrin-specific protease 1; experiment: Dose response confirmation of small molecule inhibitors of the catalytic domain of the SUMO protease, SENP1 in a FRET assay.; type: functional; details: read-out: IC50_Mean
[5] = TNFa-induced NF-kB reporter signal decrease – HEK293 LMP1 reporter cells, dry powder, set 2, selectivity assay for EBV LMP1 NF-kB inhibitor project, dose response (AID 624369); type: functional
[6] = viability loss in LCL cells – cell-based, plate reader, dry powder, set 2, cytotoxicity control, dose response (AID 624367); type: functional
Paired box protein Pax-8 = Paired box protein Pax-8 (Homo sapiens, UniProt Q06710); experiment: PAX8 transcriptional activity inhibition in RMG-I – RMG-I cells, luciferase, cherry-pick, dose response (AID 687027); type: functional, cell-based;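 note: luciferase reporter driven by Pax8 target thyroperoxidase promoter measured by SteadyGlo luminescence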
[7] = A2780 cell killing – plate reader, dry powder samples, cytotoxicity control, dose response (AID 743046); type: functional, cell-based
[8] = target: T4, Apoptotic protease-activating factor 1 (Homo sapiens, UniProt O14727); experiment: SAR analysis of small molecule Activators of Apaf-1 in a Fluorescent assay.; type: functional; details: read-out: EC50_Mean;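 note: caspase-3 cleavage of fluorogenic Rh110 DEVD substrate downstream of apoptosome activation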
T4 sequence (O14727 whole entry): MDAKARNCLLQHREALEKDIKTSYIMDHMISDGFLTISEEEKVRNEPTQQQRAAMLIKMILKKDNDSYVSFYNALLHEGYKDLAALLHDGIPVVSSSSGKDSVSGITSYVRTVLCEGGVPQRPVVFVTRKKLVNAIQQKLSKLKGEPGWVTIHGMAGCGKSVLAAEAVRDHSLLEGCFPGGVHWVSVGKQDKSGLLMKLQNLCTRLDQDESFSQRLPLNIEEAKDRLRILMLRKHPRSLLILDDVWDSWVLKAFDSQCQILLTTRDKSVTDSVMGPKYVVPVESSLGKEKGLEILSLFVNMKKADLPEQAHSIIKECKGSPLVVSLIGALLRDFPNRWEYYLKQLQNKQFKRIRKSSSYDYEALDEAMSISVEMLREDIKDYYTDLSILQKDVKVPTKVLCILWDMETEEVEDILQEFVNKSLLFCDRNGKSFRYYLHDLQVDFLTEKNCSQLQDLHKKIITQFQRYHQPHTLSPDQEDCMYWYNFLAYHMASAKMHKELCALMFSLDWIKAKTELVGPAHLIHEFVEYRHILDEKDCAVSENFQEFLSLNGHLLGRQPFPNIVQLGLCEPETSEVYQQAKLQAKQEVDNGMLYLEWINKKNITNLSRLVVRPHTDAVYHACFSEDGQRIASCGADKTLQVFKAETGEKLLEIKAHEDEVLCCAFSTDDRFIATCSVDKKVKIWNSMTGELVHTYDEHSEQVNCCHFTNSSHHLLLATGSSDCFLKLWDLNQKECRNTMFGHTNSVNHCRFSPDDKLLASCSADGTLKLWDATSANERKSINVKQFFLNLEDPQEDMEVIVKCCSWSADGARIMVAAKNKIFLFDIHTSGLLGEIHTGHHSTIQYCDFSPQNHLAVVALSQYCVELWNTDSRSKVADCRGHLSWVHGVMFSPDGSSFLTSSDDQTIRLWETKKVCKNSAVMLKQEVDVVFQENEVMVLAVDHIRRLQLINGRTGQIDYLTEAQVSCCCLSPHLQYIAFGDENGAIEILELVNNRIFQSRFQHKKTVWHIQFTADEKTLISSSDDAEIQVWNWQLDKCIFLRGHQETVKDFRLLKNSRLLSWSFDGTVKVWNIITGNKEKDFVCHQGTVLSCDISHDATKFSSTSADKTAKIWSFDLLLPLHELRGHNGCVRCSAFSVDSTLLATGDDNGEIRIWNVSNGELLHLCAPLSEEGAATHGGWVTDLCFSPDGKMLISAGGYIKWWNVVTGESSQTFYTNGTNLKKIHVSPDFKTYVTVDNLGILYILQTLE

[9] = target: ADP-ribosylation factor GTPase-activating protein 1 (Rattus norvegicus, UniProt Q62848); experiment: Fluorescence polarization-based biochemical high throughput dose response screening assay to identify inhibitors of ADP-ribosylation factor GTPase activating protein 1 (ARFGAP1).; type: functional
[10] = target: Matrix metalloproteinase-14 (Homo sapiens, UniProt P50281); experiment: Dose Response confirmation of uHTS hits for a small molecule inhibitors of MT1-MMP activation in a fluorescence assay set 1.; type: functional
[11] = activation of miR-122 Renilla sensor silencing – cell-based, Huh7 psiCHECK-miR122, Renilla luciferase, cherry-picked, dose response (AID 651956); type: functional;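 note: huh7 hepatoma cells stably carrying a psiCHECK-2 miR-122 sensor plasmid; renilla luciferase signal reporting endogenous miR-122 activity after 48 h compound exposure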

T3 sequence (Q9P0U3 whole entry, the tested form may be a part): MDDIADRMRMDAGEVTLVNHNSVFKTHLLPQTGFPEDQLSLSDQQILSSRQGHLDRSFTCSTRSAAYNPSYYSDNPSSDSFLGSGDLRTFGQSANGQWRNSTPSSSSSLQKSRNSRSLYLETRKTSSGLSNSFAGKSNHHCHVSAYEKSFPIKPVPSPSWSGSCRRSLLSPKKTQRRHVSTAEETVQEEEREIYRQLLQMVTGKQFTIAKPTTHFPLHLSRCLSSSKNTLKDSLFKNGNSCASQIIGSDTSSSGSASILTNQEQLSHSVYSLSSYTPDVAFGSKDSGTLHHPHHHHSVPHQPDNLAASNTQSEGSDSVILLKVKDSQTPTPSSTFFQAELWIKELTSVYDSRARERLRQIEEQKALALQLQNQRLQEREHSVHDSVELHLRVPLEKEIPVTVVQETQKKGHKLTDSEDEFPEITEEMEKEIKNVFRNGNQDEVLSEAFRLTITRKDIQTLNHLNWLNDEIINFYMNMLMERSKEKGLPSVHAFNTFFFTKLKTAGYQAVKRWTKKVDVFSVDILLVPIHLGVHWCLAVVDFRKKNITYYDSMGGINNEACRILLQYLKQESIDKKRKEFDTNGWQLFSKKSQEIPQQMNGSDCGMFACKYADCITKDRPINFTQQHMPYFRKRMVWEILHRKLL
Chain of ADP-ribosylation factor GTPase-activating protein 1 (Q62848 whole entry): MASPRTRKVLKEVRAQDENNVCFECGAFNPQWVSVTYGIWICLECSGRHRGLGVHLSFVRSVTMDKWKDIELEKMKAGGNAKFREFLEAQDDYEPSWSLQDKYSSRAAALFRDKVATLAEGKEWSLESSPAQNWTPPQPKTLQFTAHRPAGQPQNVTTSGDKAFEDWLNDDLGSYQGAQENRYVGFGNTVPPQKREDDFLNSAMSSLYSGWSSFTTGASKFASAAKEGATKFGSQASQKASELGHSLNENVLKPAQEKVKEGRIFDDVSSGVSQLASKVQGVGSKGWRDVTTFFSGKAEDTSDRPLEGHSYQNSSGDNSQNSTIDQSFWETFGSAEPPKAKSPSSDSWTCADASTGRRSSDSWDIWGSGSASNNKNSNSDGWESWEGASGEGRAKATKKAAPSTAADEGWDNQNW
Chain of Paired box protein Pax-8 (Q06710 whole entry): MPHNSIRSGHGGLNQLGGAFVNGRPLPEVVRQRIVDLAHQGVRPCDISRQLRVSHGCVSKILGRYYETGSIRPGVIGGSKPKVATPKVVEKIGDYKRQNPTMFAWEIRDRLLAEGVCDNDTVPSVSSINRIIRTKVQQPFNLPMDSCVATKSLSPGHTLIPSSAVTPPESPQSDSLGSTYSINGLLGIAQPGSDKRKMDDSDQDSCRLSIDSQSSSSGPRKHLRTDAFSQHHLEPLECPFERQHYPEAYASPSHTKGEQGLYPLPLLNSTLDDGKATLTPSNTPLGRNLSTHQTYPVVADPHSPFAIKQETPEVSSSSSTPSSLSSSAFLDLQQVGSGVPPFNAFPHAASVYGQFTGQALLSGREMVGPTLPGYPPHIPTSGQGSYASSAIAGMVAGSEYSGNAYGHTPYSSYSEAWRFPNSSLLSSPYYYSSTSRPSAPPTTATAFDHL

Compound: O=C(Nc1ccc(C(F)(F)F)cc1)Nc1ccc2c(c1)[C@H]1C[C@H](CC(=O)N3CCc4ccccc4C3)O[C@H](CO)[C@H]1O2
AbsAC35 [5]: 66.25 µM
AbsAC35 [6]: 42.44 µM
AC50 (Paired box protein Pax-8): 7.26 µM (active)
AC50 [7]: 57.4 µM (active)

Compound: O=C(NCCCN1CCOCC1)C1CC(c2ccc(F)cc2)=NO1 (configuration not stated)
EC50 [8]: > 100 µM (inactive)

Compound: CCCC(NS(=O)(=O)c1ccc(Br)cc1)C(=O)O (configuration not stated)
AC50 [11]: 1.68 µM (active)

Results, then the compound that gave them:

EC50 [1]: > 300 µM (not active)
EC50 [2]: > 300 µM (not active)
IC50 [3]: 21.5 µM (inactive)
IC50 [4]: 16.7 µM (active)
Compound: CC(C)CNC(=O)c1ccc(C2SCC(=O)N2Cc2ccccc2)cc1 (configuration not stated)

IC50 [9]: 50.7 µM (inactive)
Compound: O/N=C\c1ccc2noc(-c3ccc(Cl)cc3)c2c1

IC50 [10]: 6 µM (active)
Compound: CCOC(=O)C1=C(C)N=c2s/c(=C\c3ccc(OC(C)=O)c(OCC)c3)c(=O)n2C1/C=C/c1ccccc1 (configuration not stated)
